Experimental data as given in ChEMBL document CHEMBL1821626, “Novel 2-thioxothiazolidin-4-one inhibitors of bacterial MurD ligase targeting D-Glu- and diphosphate-binding sites” (Eur J Med Chem, 2011).

Experiments:
[1] = Inhibition of Escherichia coli MurD ligase after 15 mins by colorimetric malachite green assay
[2] = Inhibition of Escherichia coli MurD ligase assessed as residual activity at 500 uM after 15 mins by colorimetric malachite green assay
[3] = Inhibition of Escherichia coli MurD ligase assessed as residual activity at 250 uM after 15 mins by colorimetric malachite green assay

Activity [2] [%] | Compound | other results
 | O=C(O)CC[C@@H](NC(=O)c1cccc(/C=C2\SC(=S)NC2=O)c1)C(=O)O | IC50 [1]: 89 µM
95 | N=C1NC(=O)/C(=C/c2ccc(C(=O)N[C@H](CCC(=O)O)C(=O)O)cc2)S1 | 
97 | O=C(O)CC[C@@H](NC(=O)c1ccc(/C=C2\NC(=O)NC2=O)cc1)C(=O)O | 
 | O=C(O)CC[C@@H](NC(=O)c1cccc(/C=C2\SC(=O)NC2=O)c1)C(=O)O | Activity [3]: 97%
96 | O=C(O)CC[C@@H](NC(=O)c1ccc(/C=C2\SC(=S)N(CC(=O)O)C2=O)cc1)C(=O)O | 
 | O=C(O)CC[C@H](NC(=O)c1cccc(/C=C2\SC(=S)NC2=O)c1)C(=O)O | IC50 [1]: 172 µM
67 | O=C(O)CC[C@@H](NC(=O)c1cc(/C=C2\SC(=S)NC2=O)ccc1F)C(=O)O | 
 | O=C(O)CC[C@H](NC(=O)c1ccc(/C=C2\SC(=S)NC2=O)cc1)C(=O)O | IC50 [1]: 10 µM
 | O=C(O)CC[C@H](NC(=O)c1cccc(/C=C2\SC(=O)NC2=O)c1)C(=O)O | Activity [3]: 96%
91 | O=C(O)CC[C@@H](NC(=O)c1cccc(CC2SC(=S)NC2=O)c1)C(=O)O (stereo partly specified) | 
85 | CN1C(=O)/C(=C/c2ccc(C(=O)N[C@H](CCC(=O)O)C(=O)O)cc2)SC1=S | 
96 | O=C(O)CC[C@@H](NC(=O)c1ccc(CC2SC(=S)NC2=O)cc1)C(=O)O (stereo partly specified) | 
91 | COC(=O)CC[C@@H](NC(=O)c1cccc(CC2SC(=S)NC2=O)c1)C(=O)OC (stereo partly specified) | 
 | O=C(O)CC[C@@H](NC(=O)c1ccc(/C=C2\SC(=S)NC2=O)cc1)C(=O)O | IC50 [1]: 45 µM
 | O=C(O)CC[C@H](NC(=O)c1ccc(/C=C2\SC(=O)NC2=O)cc1)C(=O)O | Activity [3]: 93%
 | O=C(O)CC[C@@H](NC(=O)c1ccc(/C=C2\SC(=O)NC2=O)cc1)C(=O)O | Activity [3]: 96%
